The source of these data is patent US9353152B2, “Induction of the mitochondrial permeability transition” (NewSouth Innovations Pty Limited, priority 2002, dated 2016).

One series deals with T1, ANT (Rattus norvegicus, UniProt Q09073).
T1 construct: Mitochondria were isolated from the livers of ˜250 g male Wistar rats; from tissue; host or cells: rat liver mitochondria (male Wistar rats)
T1 sequence (Q09073 2-298 limits assumed): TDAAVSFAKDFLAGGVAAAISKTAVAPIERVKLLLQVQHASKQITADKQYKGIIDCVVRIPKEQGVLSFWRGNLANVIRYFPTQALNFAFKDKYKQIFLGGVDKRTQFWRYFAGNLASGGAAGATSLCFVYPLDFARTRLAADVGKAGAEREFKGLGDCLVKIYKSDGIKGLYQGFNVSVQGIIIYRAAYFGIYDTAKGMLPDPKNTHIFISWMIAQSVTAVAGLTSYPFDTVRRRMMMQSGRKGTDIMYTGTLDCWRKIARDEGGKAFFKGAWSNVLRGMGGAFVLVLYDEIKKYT
In words: Binding of GSAO-B to ANT (streptavidin pull-down, Western blot). Conditions: 100 μM GSAO-B, 1 h; competed by 4-fold molar excess of dimercaptopropanol. The protocol:
Rat liver mitochondria were suspended at 1 mg of protein per mL at 25° C. in 3 mM HEPES-KOH, pH 7.0 buffer containing 213 mM mannitol, 71 mM sucrose and 10 mM sodium succinate and incubated with 100 μM GSAO-B in absence or presence of 400 μM 2,3-dimercaptopropanol (Fluka, Buchs, SG, Switzerland) at room temperature on a rotating wheel for 1 h. The labelled mitochondria were washed three times with PBS and sonicated in 0.3 mL of ice-cold 25 mM Tris, pH 7.4 buffer containing 140 mM NaCl, 2.7 mM KCl, 0.5% Triton X-100, 0.05% Tween-20, 10 μM leupeptin, 10 μM aprotinin, 50 μg·mL^−1 […] and 5 mM EDTA. Lysate was clarified by centrifugation at 18000 g for 10 min at 4° C. and incubated with 30 μL of streptavidin-dynabeads (Dynal, Oslo, Norway) for 60 min at 4° C. on a rotating wheel to isolate the biotin-labelled proteins. The beads were washed 5 times with sonication buffer and the biotin-labelled proteins were released from the beads by boiling in 30 μl of SDS-Laemmli buffer for 2 minutes. Samples were resolved on 8-16% gradient iGels under reducing conditions and transferred to PVDF membrane. Proteins were detected by Western blot using a 1:500 dilution of goat anti-human ANT polyclonal antibody (Santa Cruz Biotechnology, Santa Cruz, Calif.) and 1:2000 dilution of rabbit anti-goat peroxidase-conjugated antibodies (Dako, Carpinteria, Calif.).
On the technique in general: Immunoblotting shows a protein as a band on a membrane.

The target in another series is T2, MPTP (Rattus norvegicus, UniProt Q09073).
T2 construct: Mitochondria were isolated from the livers of ˜250 g male Wistar rats; from tissue; host or cells: rat liver mitochondria (male Wistar rats)
T2 sequence (Q09073 2-298 limits assumed): T1 sequence (Q09073 2-298 limits assumed)
The format is biochemical.

Series [1] can be described thus: Titration of arsenoxide compounds with DTT. It is filed as physicochemical. The following applies: GSAO versus Compound 1.
A short description of series [2]: Toxicity of o-GSAO in Balb-C mice. It is filed as in vivo. The protocol:
FIG. 22. Toxicity of o-GSAO. Balb-C mice (6-8 week old, 3 per group) were treated subcutaneously with 1 or 10 mg/kg/day of o-GSAO in 0.1 mL of PBS. The data points are the mean±SE of the mice weights.

The test system of series [3] is BAE cells. The series is described as follows: Cell proliferation and viability assay (MTT). It is filed as cell-based, bovine. The protocol:
(§1) BAE or human pancreatic carcinoma BxPC-3 cells were seeded at a density of 10^3 cells per well into 96 well plates in DMEM containing 10% foetal bovine serum and allowed to adhere for 24 h. Cells were washed and incubated with DMEM containing 10% foetal bovine serum and GSAO or o-GSAO and cultured for a further 48 h. Some BAE cells were arrested for 24 h in medium containing 0.25% serum and cultured for a further 48 h in medium containing 0.25% or 10% serum, in the presence of GSAO or o-GSAO. Viable attached cells were determined using MTT.

For series [4], the system named is BAE cells. In words: cells. Conditions: Bos taurus, read-out: IC50 (μM)*.
Series [5] concerns the target T3, mitochondrial permeability transition pore (Rattus norvegicus, UniProt Q09073).
T3 construct: Mitochondria were isolated from the livers of ˜250 g male Wistar rats; from tissue; host or cells: rat liver mitochondria (male Wistar rats)
T3 sequence (Q09073 2-298 limits assumed): T1 sequence (Q09073 2-298 limits assumed)
It is filed as biochemical. Conditions: for a given concentration.

Series [6] concerns BAE cells.
Series [7] has as its system human pancreatic carcinoma BxPC-3 cells. The series is described as follows: Cell proliferation and viability assay (MTT). The format is cell-based. The following applies: Homo sapiens, BXPC-3; 10% serum, 48 h; read-out: IC50 for proliferation arrest of BxPC-3 cells. The protocol:
as §1

A short description of series [8]: Side-effects in Balb-C nude mice bearing BxPC-3 tumours. The format is in vivo. The protocol:
Female 7 to 9 week old Balb C nude were used (UNSW Biological Resource Centre). Mice were held in groups of 3 to 5 at a 12 h day and night cycle and were given animal chow and water ad libidum. A suspension of 2.5×10^6 BxPC-3 cells in 0.2 mL of PBS was injected subcutaneously in the proximal midline. Tumours were allowed to establish and grow to a size of ˜40 mm^3 after which they were randomised into four groups. Tumour volume was calculated using the relationship, a·b^2·0.52, where a is the longest and b the shortest diameter. Animals were treated with either GSAO or o-GSAO at a dose 1 or 10 mg/kg/day in 0.1 mL of PBS. The compounds were administered subcutaneously at a site distant from the tumour. Tumour volume and animal weight was measured every 2 or 3 days.
Balb-C nude mice bearing ˜40 mm^3 BxPC-3 tumours were randomised into four groups (n=10 or 11 per group) and treated subcutaneously with either GSAO (part A) or o-GSAO (part B) at 1 or 10 mg/kg/day in 0.1 mL of PBS. Parts C and D are the mice weights for the respective groups, where the arrow indicates start of treatment. The data points are the mean±SE of the tumour volumes or mice weights. Treatment with 10 mg/kg o-GSAO (part B) was stopped at day 14 due to necrosis and inflammation at sites of injection in 7 out of 11 mice (3/11 with severe ulcers, 4/11 with medium ulcers).

Setting [9] is: 10 mg/kg/day o-GSAO s.c., day 14.

Structures are written as SMILES. Values joined by “and” are separate entries in the source; they are usually repeats but may differ in a detail not shown here. Identical values can stand only once.

For `O=[As]c1ccc(NC(=O)CSC[C@H](NC(=O)CC[C@H](NC(=O)CCCCCNC(=O)CCCCCNC(=O)CCCC[C@@H]2SC[C@@H]3NC(=O)N[C@@H]32)C(=O)O)C(=O)NCC(=O)O)cc1` (stereo partly shown) [GSAO-B, 4-(N—(S—(N-(6-((6-((biotinoyl)amino)hexanoyl)amino)hexanoyl)-glutathionyl)acetyl)amino) phenylarsenoxide], on ANT, the “labelling of ANT with GSAO-B” value is on record as “Direct interaction”.

As to `NC(CCC(=O)NC(CSCC(=O)Nc1ccccc1[As](O)O)C(=O)NCC(=O)O)C(=O)O` (stereo not drawn) [Compound 1, NH2-Glu-Cys-(CH2CONH—C6H4-o-As{OH}2)-Gly-OH], the “MPTP Swelling Rate Increase/GSAO* Mean” value on MPTP is recorded as 16.3. In addition, the “arsenical reactivity (titration with DTT)” value in series [1] is reported as “no significant difference”. Besides, the “Side-effects of o-GSAO administration” value in series [2] (1 mg/kg/day s.c., day 1) is “nil”; in series [2] (1 mg/kg/day s.c., day 2) it was “ruffled fur; mild hyperactivity^b”; in series [2] (1 mg/kg/day s.c., day 3), “ruffled fur; mild hyperactivity^b”; in series [2] (1 mg/kg/day s.c., day 4), “ruffled fur; mild hyperactivity^b”; in series [2] (1 mg/kg/day s.c., day 5), “ruffled fur; hyperactivity; clonic”; in [2] (1 mg/kg/day s.c., day 6), “ruffled fur; hyperactivity; clonic”. In addition, the “Side-effects of o-GSAO administration” value in [2] (1 mg/kg/day s.c., day 7) is recorded as “ruffled fur; hyperactivity; clonic”; in series [2] (1 mg/kg/day s.c., day 8) it was “ruffled fur; hyperactivity^b”; in series [2] (1 mg/kg/day s.c., day 9) it was “ruffled fur; mild hyperactivity^b”; in [2] (1 mg/kg/day s.c., day 10), “ruffled fur; mild hyperactivity^b”; in [2] (1 mg/kg/day s.c., day 11), “ruffled fur; mild hyperactivity^b”; in series [2] (1 mg/kg/day s.c., day 13) it was “nil”. In addition, the “Side-effects of o-GSAO administration” value in series [2] (1 mg/kg/day s.c., day 14) is given as “nil”; in series [2] (10 mg/kg/day s.c., day 1), “ruffled fur; hyperactivity; mild”; in [2] (10 mg/kg/day s.c., day 2) it was “ruffled fur; mild hyperactivity^b”; in series [2] (10 mg/kg/day s.c., day 3), “ruffled fur; mild hyperactivity^b”; in series [2] (10 mg/kg/day s.c., day 4), “ruffled fur; mild hyperactivity^b”; in series [2] (10 mg/kg/day s.c., day 5), “ruffled fur; hyperactivity; clonic”. Further, the “Side-effects of o-GSAO administration” value was “ruffled fur; hyperactivity; clonic” in series [2] (10 mg/kg/day s.c., day 6); “ruffled fur; hyperactivity; clonic” in [2] (10 mg/kg/day s.c., day 7); “ruffled fur; hyperactivity^b” in series [2] (10 mg/kg/day s.c., day 8); “ruffled fur; mild hyperactivity^b” in [2] (10 mg/kg/day s.c., day 9); “ruffled fur; mild hyperactivity^b” in [2] (10 mg/kg/day s.c., day 10); “ruffled fur; mild hyperactivity^b” in series [2] (10 mg/kg/day s.c., day 11). For the same molecule, the “Side-effects of o-GSAO administration” value was “skin necrosis at the injection site” in series [2] (10 mg/kg/day s.c., day 13) and “skin necrosis at the injection site” in series [2] (10 mg/kg/day s.c., day 14). For the same molecule, the weight loss entry in series [2] (1 or 10 mg/kg/day s.c., Balb C mice) is “no weight loss observed”; in [8] (10 mg/kg/day o-GSAO s.c.), “some weight loss”. The “skin effects with repeated injections in the same area” value in series [2] (Balb C mice) was “thickening of the skin and occasional necrosis”. The “times more effective than GSAO at inhibiting proliferation of BAE cells” value with BAE cells [3] is roughly 50 times. In addition, the “selectivity for proliferating versus growth-quiescent endothelial cells” value in the series on BAE cells [3] (0.25% or 10% serum, 48 h) was “not selective for proliferating (angiogenic) endothelial cells”. Moreover, the IC50 with BAE cells [3] (Bos taurus, 10% serum, 48 h, read-out: IC50 for proliferation arrest of BAE cells) was 160 ± 30 nM; in the series on BAE cells [4], 0.16 µM; in series [7], roughly 2000 nM. The “half-time for maximal swelling, times faster compared to GSAO” value in series [5] is listed as 3-5 times. The “Fold Increase” value with BAE cells [6] turned out to be 53.2. Besides, the “mice with medium ulcers” value in [8] (setting [9]) was 4/11. For the same molecule, the “mice with severe ulcers” value in [8] (setting [9]) is recorded as 3/11. In addition, in series [8] (10 mg/kg/day o-GSAO s.c., treatment stopped at day 14), the “mice with necrosis and inflammation at sites of injection” value is 7 out of 11 and 7 of 11. Also, the “behavioural side-effects in Balb C nude mice” value in series [8] (1 or 10 mg/kg/day s.c.) is “not observed”.
